Laboratory results: patent publication EP4480960A1, “A R[…] ALPHA-1 ANTITRYPSIN GLYCOPROTEIN” (AATEC Medical GmbH, priority 2023, dated 2024)
Structures can show the parent of a compound that is named as a salt.

How the values were obtained:
[1] = target: T1, human neutrophil elastase (Homo sapiens, UniProt P08246); experiment: Neutrophil Elastase activity assay (fluorogenic MEOSUC-Ala-Ala-Pro-Val-AMC substrate); format: biochemical; design: key to Neutrophil Elastase IC50 / Neutrophil Elastase IC90: - = inactive
T1 construct: purchased Merck Millipore 324681
T1 sequence (P08246 30-247 limits assumed): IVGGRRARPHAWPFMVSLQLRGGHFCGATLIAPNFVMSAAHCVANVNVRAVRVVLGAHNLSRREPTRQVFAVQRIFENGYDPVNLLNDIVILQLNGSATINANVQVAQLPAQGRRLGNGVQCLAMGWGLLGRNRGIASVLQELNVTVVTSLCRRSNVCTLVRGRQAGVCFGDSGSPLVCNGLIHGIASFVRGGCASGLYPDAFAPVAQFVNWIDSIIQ

[2] = target: recombinant human TMPRSS2 enzyme (CusaBio #YP023924HU) (human) (UniProt O15393); experiment: cell-based or functional assay
Sequence of recombinant human TMPRSS2 enzyme (CusaBio #YP023924HU) (human) (O15393 106-492 limits assumed): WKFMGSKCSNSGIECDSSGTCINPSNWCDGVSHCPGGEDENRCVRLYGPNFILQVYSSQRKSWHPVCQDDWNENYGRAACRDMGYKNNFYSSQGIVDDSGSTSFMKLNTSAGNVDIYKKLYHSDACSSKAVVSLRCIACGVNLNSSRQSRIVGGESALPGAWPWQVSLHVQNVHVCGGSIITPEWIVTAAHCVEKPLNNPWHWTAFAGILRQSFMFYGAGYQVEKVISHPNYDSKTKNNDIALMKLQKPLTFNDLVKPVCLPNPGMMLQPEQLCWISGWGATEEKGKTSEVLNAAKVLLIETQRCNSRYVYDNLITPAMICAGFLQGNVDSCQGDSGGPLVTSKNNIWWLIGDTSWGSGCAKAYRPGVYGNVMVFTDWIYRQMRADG

[3] = 15 min preincubation at 37 °C, read after 5 minutes

TMPRSS2 IC50 (fluorogenic substrate enzyme activity assay) [2] [nM] | Compound | Neutrophil Elastase IC50 [1, 3] | Neutrophil Elastase IC90 [1, 3] | inhibition of neutrophil elastase activity ([1]; result in words)
 | CN(C)C(=O)COC(=O)Cc1ccc(OC(=O)c2ccc(NC(=N)N)cc2)cc1 [Camostat mesylate] | - | - | did not inhibit
51.8 | NIBSC Standard Alpha-1-Antitrypsin, plasma derived (1st International standard) (#05/162 NIBSC) (from UniProt P01009 25-418) |  |  | 
79 | Prolastin (Grifols), human plasma-derived A1AT formulation (from UniProt P01009 25-418) |  |  | 
